Measured values reported in the supplement of paper PMC10307832.

Legend:
Assay in all cases: relative viability (nuclei count vs DMSO), 5 days (fraction); higher = more cells survive
NCI-H1792 = tested on: NCI-H1792
Outline: (§1)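 Five library-drug doses in √10 steps were combined with a fixed anchor-drug dose, or a single drug was given alone, by pin tool to lung cancer cell lines in 1536-well plates the day after seeding. Nuclei were stained and counted after 5 days. Relative viability is the nuclei count in treated wells over that in vehicle wells, taken as the median of duplicate plates.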

NCI-H1993 = tested on: NCI-H1993
Outline: as §1

HCC-15 = tested on: HCC-15
Outline: as §1

NCI-H838 = tested on: NCI-H838
Outline: as §1

NCI-H358 = tested on: NCI-H358
Outline: as §1

COR-L23 = tested on: COR-L23
Outline: as §1

NCI-H647 = tested on: NCI-H647
Outline: as §1

NCI-H1395 = tested on: NCI-H1395
Outline: as §1

NCI-H1734 = tested on: NCI-H1734
Outline: as §1

NCI-H2009 = tested on: NCI-H2009
Outline: as §1

NCI-H1755 = tested on: NCI-H1755
Outline: as §1

NCI-H1793 = tested on: NCI-H1793
Outline: as §1

UMC-11 = tested on: UMC-11
Outline: as §1

HOP-62 = tested on: HOP-62
Outline: as §1

NCI-H522 = tested on: NCI-H522
Outline: as §1

NCI-H2170 = tested on: NCI-H2170
Outline: as §1

COR-L 105 = tested on: COR-L 105
Outline: as §1

NCI-H1355 = tested on: NCI-H1355
Outline: as §1

SK-MES-1 = tested on: SK-MES-1
Outline: as §1

NCI-H2228 = tested on: NCI-H2228
Outline: as §1

NCI-H2347 = tested on: NCI-H2347
Outline: as §1

HARA = tested on: HARA
Outline: as §1

Molecule `COc1cc2nccc(Oc3ccc(NC(=O)Nc4cc(C)on4)c(Cl)c3)c2cc1OC` [Tivozanib] + N=C(N)NC(=N)NCCc1ccccc1 [Phenformin] (partner 250 µM) has a relative viability (NCI-H1792; first compound 0.005 µM) of 0.316, a relative viability (NCI-H1792; first compound 0.01581 µM) of 0.394 and a relative viability (NCI-H1792; first compound 0.05 µM) of 0.361. For the same molecule, the relative viability (NCI-H1792; first compound 0.5 µM) was 0.388, the relative viability (NCI-H1993; first compound 0.005 µM) was 0.503 and the relative viability (NCI-H1993; first compound 0.01581 µM) was 0.507. The relative viability (NCI-H1993; first compound 0.05 µM) was 0.51, the relative viability (NCI-H1993; first compound 0.1581 µM) was 0.558 and the relative viability (NCI-H1993; first compound 0.5 µM) was 0.52. It also gave a relative viability (HCC-15; first compound 0.005 µM) of 0.421, a relative viability (HCC-15; first compound 0.01581 µM) of 0.476 and a relative viability (HCC-15; first compound 0.05 µM) of 0.5. The relative viability (HCC-15; first compound 0.1581 µM) was 0.581, the relative viability (HCC-15; first compound 0.5 µM) was 0.426 and the relative viability (NCI-H838; first compound 0.005 µM) was 0.538. The relative viability (NCI-H838; first compound 0.01581 µM) was 0.551, the relative viability (NCI-H838; first compound 0.05 µM) was 0.538 and the relative viability (NCI-H838; first compound 0.5 µM) was 0.564. It also gave a relative viability (NCI-H358; first compound 0.005 µM) of 0.306, a relative viability (NCI-H358; first compound 0.01581 µM) of 0.265 and a relative viability (NCI-H358; first compound 0.05 µM) of 0.411. It also gave a relative viability (NCI-H358; first compound 0.1581 µM) of 0.301, a relative viability (NCI-H358; first compound 0.5 µM) of 0.447 and a relative viability (COR-L23; first compound 0.005 µM) of 0.427. The relative viability (COR-L23; first compound 0.01581 µM) was 0.433, the relative viability (COR-L23; first compound 0.05 µM) was 0.446 and the relative viability (COR-L23; first compound 0.1581 µM) was 0.43. For the same molecule, the relative viability (COR-L23; first compound 0.5 µM) was 0.409, the relative viability (NCI-H647; first compound 0.005 µM) was 0.538 and the relative viability (NCI-H647; first compound 0.01581 µM) was 0.457. The relative viability (NCI-H647; first compound 0.05 µM) was 0.473, the relative viability (NCI-H647; first compound 0.1581 µM) was 0.469 and the relative viability (NCI-H647; first compound 0.5 µM) was 0.497. The relative viability (NCI-H1395; first compound 0.005 µM) was 0.357, the relative viability (NCI-H1395; first compound 0.01581 µM) was 0.475 and the relative viability (NCI-H1395; first compound 0.05 µM) was 0.444. The relative viability (NCI-H1395; first compound 0.1581 µM) was 0.426, the relative viability (NCI-H1395; first compound 0.5 µM) was 0.383 and the relative viability (NCI-H1734; first compound 0.005 µM) was 0.343. It also gave a relative viability (NCI-H1734; first compound 0.01581 µM) of 0.365, a relative viability (NCI-H1734; first compound 0.05 µM) of 0.371 and a relative viability (NCI-H1734; first compound 0.1581 µM) of 0.362. For the same molecule, the relative viability (NCI-H1734; first compound 0.5 µM) was 0.383, the relative viability (NCI-H2009; first compound 0.005 µM) was 0.448 and the relative viability (NCI-H2009; first compound 0.01581 µM) was 0.473. For the same molecule, the relative viability (NCI-H2009; first compound 0.05 µM) was 0.453, the relative viability (NCI-H2009; first compound 0.1581 µM) was 0.478 and the relative viability (NCI-H2009; first compound 0.5 µM) was 0.344. For the same molecule, the relative viability (NCI-H1755; first compound 0.005 µM) was 0.585, the relative viability (NCI-H1755; first compound 0.01581 µM) was 0.605 and the relative viability (NCI-H1755; first compound 0.05 µM) was 0.631. It also gave a relative viability (NCI-H1755; first compound 0.1581 µM) of 0.644, a relative viability (NCI-H1755; first compound 0.5 µM) of 0.459 and a relative viability (NCI-H1793; first compound 0.005 µM) of 0.35. It also gave a relative viability (NCI-H1793; first compound 0.01581 µM) of 0.352, a relative viability (NCI-H1793; first compound 0.05 µM) of 0.419 and a relative viability (NCI-H1793; first compound 0.1581 µM) of 0.309. The relative viability (NCI-H1793; first compound 0.5 µM) was 0.335, the relative viability (UMC-11; first compound 0.005 µM) was 0.324 and the relative viability (UMC-11; first compound 0.01581 µM) was 0.332. The relative viability (UMC-11; first compound 0.05 µM) was 0.329, the relative viability (UMC-11; first compound 0.5 µM) was 0.25 and the relative viability (HOP-62; first compound 0.005 µM) was 0.611. It also gave a relative viability (HOP-62; first compound 0.01581 µM) of 0.626, a relative viability (HOP-62; first compound 0.05 µM) of 0.66 and a relative viability (HOP-62; first compound 0.1581 µM) of 0.704. The relative viability (HOP-62; first compound 0.5 µM) was 0.714, the relative viability (NCI-H522; first compound 0.005 µM) was 0.595 and the relative viability (NCI-H522; first compound 0.01581 µM) was 0.73. The relative viability (NCI-H522; first compound 0.05 µM) was 0.593, the relative viability (NCI-H522; first compound 0.1581 µM) was 0.619 and the relative viability (NCI-H522; first compound 0.5 µM) was 0.705. The relative viability (NCI-H2170; first compound 0.005 µM) was 0.413, the relative viability (NCI-H2170; first compound 0.01581 µM) was 0.42 and the relative viability (NCI-H2170; first compound 0.05 µM) was 0.395. It also gave a relative viability (NCI-H2170; first compound 0.1581 µM) of 0.424, a relative viability (NCI-H2170; first compound 0.5 µM) of 0.421 and a relative viability (COR-L 105; first compound 0.005 µM) of 0.49. It also gave a relative viability (COR-L 105; first compound 0.01581 µM) of 0.482, a relative viability (COR-L 105; first compound 0.05 µM) of 0.558 and a relative viability (COR-L 105; first compound 0.1581 µM) of 0.501. The relative viability (COR-L 105; first compound 0.5 µM) was 0.43, the relative viability (NCI-H1355; first compound 0.005 µM) was 0.413 and the relative viability (NCI-H1355; first compound 0.01581 µM) was 0.432. The relative viability (NCI-H1355; first compound 0.05 µM) was 0.481, the relative viability (NCI-H1355; first compound 0.1581 µM) was 0.43 and the relative viability (NCI-H1355; first compound 0.5 µM) was 0.382. For the same molecule, the relative viability (SK-MES-1; first compound 0.005 µM) was 0.622, the relative viability (SK-MES-1; first compound 0.01581 µM) was 0.676 and the relative viability (SK-MES-1; first compound 0.05 µM) was 0.71. The relative viability (SK-MES-1; first compound 0.1581 µM) was 0.688, the relative viability (SK-MES-1; first compound 0.5 µM) was 0.602 and the relative viability (NCI-H2228; first compound 0.005 µM) was 0.306. It also gave a relative viability (NCI-H2228; first compound 0.01581 µM) of 0.283, a relative viability (NCI-H2228; first compound 0.05 µM) of 0.325 and a relative viability (NCI-H2228; first compound 0.1581 µM) of 0.288. For the same molecule, the relative viability (NCI-H2228; first compound 0.5 µM) was 0.406, the relative viability (NCI-H2347; first compound 0.01581 µM) was 0.484 and the relative viability (NCI-H2347; first compound 0.05 µM) was 0.512. The relative viability (NCI-H2347; first compound 0.5 µM) was 0.438, the relative viability (HARA; first compound 0.005 µM) was 0.452 and the relative viability (HARA; first compound 0.01581 µM) was 0.41. The relative viability (HARA; first compound 0.05 µM) was 0.424, the relative viability (HARA; first compound 0.1581 µM) was 0.364 and the relative viability (HARA; first compound 0.5 µM) was 0.489.
